Source: US9156796B2, “Benzoimidazole-carboxylic acid amide derivatives as APJ receptor modulators” (SANOFI, priority 2013, dated 2015)

Target: T1, human apelin receptor (Homo sapiens, UniProt P35414)
T1 construct: expressed in transfected cells
T1 sequence (P35414 1-380): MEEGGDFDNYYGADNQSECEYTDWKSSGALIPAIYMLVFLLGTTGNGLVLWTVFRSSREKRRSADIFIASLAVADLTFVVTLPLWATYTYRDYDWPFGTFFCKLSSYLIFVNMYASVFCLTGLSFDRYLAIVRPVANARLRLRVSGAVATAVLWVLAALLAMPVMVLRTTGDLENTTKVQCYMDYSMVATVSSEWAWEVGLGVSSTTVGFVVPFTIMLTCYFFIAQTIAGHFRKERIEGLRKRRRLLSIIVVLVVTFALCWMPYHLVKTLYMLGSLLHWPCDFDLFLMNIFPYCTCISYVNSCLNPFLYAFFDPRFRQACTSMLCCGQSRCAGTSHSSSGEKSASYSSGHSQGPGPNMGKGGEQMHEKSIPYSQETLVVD
Experiment: Determination of agonism on the human apelin receptor by a calcium fluorescence assay (FLIPR)
Format: cell-based
Conditions: EC50 (APJ agonism), HEK293 cells stably transfected with human apelin receptor and Giaq protein, Fluo-4 calcium fluorescence
Text: Determination of Agonism on the Human Apelin Receptor by a Calcium Fluorescence Assay (FLIPR)
The assay is based on the detection of intracellular calcium changes detected by the selective, calcium-chelating dye Fluo-4 (Molecular Probes). A large fluorescence intensity increase is observed upon calcium association with Fluo-4. The dye is delivered to the cell interior using an acetoxymethylester form of Fluo-4, where the intracellular esterase activity results in the charged species being released and trapped within the cytoplasm of the cell. […] By co-expressing the human apelin receptor and a promiscuous Giaq protein, agonism of the apelin receptor couples to phospholipase-C resulting in intracellular calcium mobilization.
The HEK293 cells were stably transfected with the human apelin receptor and the Giaq protein. Cells were selected and maintained in a log phase of growth at 37° and 5% CO2 in the Iscove's minimal essential medium, 10% fetal calf serum, 1× Penicillin-Streptomycin, 400 μg/mL G418. One day prior the assay, cells were passaged by accutase and plated at a density of 50,000 cells/well onto a 96-well plates with black border but clear bottom (Costar, cat#3904) in a final volume of 200 μl growth medium.
In order to load the cells the next day with the calcium-sensitive dye, growth medium was carefully replaced by dye solution (100 μl/well) containing Fluo-4 (4 μM) in basic measurement buffer (135 mM NaCl, 5 mM KCl, 1 mM magnesium sulphate, 5 mM glucose, 20 mM Hepes, 2.5 mM probenecid; adjusted to pH 7.4). Cells were incubated for 1 h at 37° C., and then washed 3× with buffer containing no dye. The washer was programmed to leave a remaining volume of 150 μl after the third wash in the plate.
During the dye-loading of the cells, a serial compound dilution was performed in a separate 96-well plate with overall 4× increased concentrations. Small aliquots of DMSO stock solutions of the compounds (10 mM in 100% DMSO were aliquoted into 150 μl buffer in the first rows of the 96-well plates, and then serially diluted by a factor of 1:3 transferring each time 30 μl to the next rows already containing 60 μl buffer. All compounds were tested in a least 7 concentrations, each condition was performed in triplicates. As comparator, we used freshly prepared apelin-13 solutions, for which also a concentration-response curve was determined at each measurement day. The compound plate was incubated for 10 min after the final dilutions steps at 37° C. before transferring the dye-loaded cell plate and the compound plate into a FLIPR Tetra reader (Molecular Devices). Measurement within this reader started by pipetting the agonist solution (50 μl) on the cell plate. Overall perform 60 reads were performed with an interval of 2 sec. The maximum of the fluorescence transient was used to calculate the agonistic response of the cells. In order to normalize this response, which may vary from plate to plate we set the maximum fluorescence achieved by 1 μM apelin-13 on this plate as 100%.
EC-50 values for apelin-13 and the apelin receptor compounds described in this patent were determined by standard algorithms using a specific software package.

SMILES	EC50
CCC(CC)n1c(Cc2cccs2)nc2cc(C(=O)N[C@H](CO)C(C)C)ccc21 [Example 190, 1-(1-Ethyl-propyl)-2-thiophen-2-ylmethyl-1H-benzoimidazole-5-carboxylic acid ((S)-1-hydroxymethyl-2-methyl-propyl)-amide]	6280 nM

Same assay, conditions: HEK293 cells stably transfected with human apelin receptor and Giaq protein, Fluo-4 calcium fluorescence, read-out: EC50 (APJ agonism)

SMILES	EC50
CCC[C@@H](CO)NC(=O)c1ccc2c(c1)nc(Cc1cccs1)n2C(CC)CC [Example 201, 1-(1-Ethyl-propyl)-2-thiophen-2-ylmethyl-1H-benzoimidazole-5-carboxylic acid ((S)-1-hydroxymethyl-butyl)-amide]	334 nM
CCC(CC)n1c(Cc2cccs2)nc2cc(C(=O)N[C@@H](CC(C)C)C(=O)N3CC4CC3CN4CC)ccc21 (stereo partly drawn) [Example 347, 1-(1-Ethyl-propyl)-2-thiophen-2-ylmethyl-1H-benzoimidazole-5-carboxylic acid [(S)-1-(5-ethyl-2,5-diaza-bicyclo[2.2.1]heptane-2-carbonyl)-3-methyl-butyl]-amide]	809 nM
CCC(CC)n1c(Cc2cccs2)nc2cc(C(=O)N[C@@H](CC(C)C)C(=O)NCc3nccs3)ccc21 [Example 250, 1-(1-Ethyl-propyl)-2-thiophen-2-ylmethyl-1H-benzoimidazole-5-carboxylic acid {(S)-3-methyl-1-[(thiazol-2-ylmethyl)-carbamoyl]-butyl}-amide]	520 nM
CC(C)C[C@@H](CO)NC(=O)c1ccc2c(c1)nc(Cc1cccs1)n2C1CCCCC1C (stereo partly drawn) [Example 211, 1-(2-Methyl-cyclohexyl)-2-thiophen-2-ylmethyl-1H-benzoimidazole-5-carboxylic acid ((S)-1-hydroxymethyl-3-methyl-butyl)-amide]	705 nM
CCC(CC)n1c(Cc2cccs2)nc2cc(C(=O)N[C@@H](CC(C)C)C(=O)N(C)C)ccc21 [Example 357, 1-(1-Ethyl-propyl)-2-thiophen-2-ylmethyl-1H-benzoimidazole-5-carboxylic acid ((S)-1-dimethyl-carbamoyl-3-methyl-butyl)-amide]	389 nM
CCC(CC)n1c(Cc2cccs2)nc2cc(C(=O)N[C@@H](CC(C)C)C(=O)NCC3CCCN(CCc4ccccc4)C3)ccc21 (stereo partly drawn) [Example 302, 1-(1-Ethyl-propyl)-2-thiophen-2-ylmethyl-1H-benzoimidazole-5-carboxylic acid {(S)-3-methyl-1-[(1-phenethyl-piperidin-3-ylmethyl)-carbamoyl]-butyl}-amide]	386 nM
CC(C)C[C@H](NC(=O)c1ccc2c(c1)nc(Cc1cccs1)n2C1CCCC1C)C(=O)O (stereo partly drawn) [Example 90, (S)-4-Methyl-2-{[1-(2-methyl-cyclopentyl)-2-thiophen-2-ylmethyl-1H-benzoimidazole-5-carbonyl]-amino}-pentanoic acid]	472 nM
CCC(CC)n1c(Cc2cccs2)nc2cc(C(=O)N[C@@H](CC(C)C)C(=O)N3CCC[C@@H]3C(=O)O)ccc21 [Example 410, (R)-1-((S)-2-{[1-(1-Ethyl-propyl)-2-thiophen-2-ylmethyl-1H-benzoimidazole-5-carbonyl]-amino}-4-methyl-pentanoyl)-pyrrolidine-2-carboxylic acid]	578 nM
CCC(CC)n1c(Cc2cccs2)nc2cc(C(=O)NC3(C(=O)O)CCCCC3)ccc21 [Example 24, 1-{[1-(1-Ethyl-propyl)-2-thiophen-2-ylmethyl-1H-benzoimidazole-5-carbonyl]-amino}-cyclohexanecarboxylic acid]	219 nM
CCC(CC)n1c(Cc2cccs2)nc2cc(C(=O)N[C@@H](CC(C)C)C(=O)N3CCC(N4CCc5ccccc5C4)CC3)ccc21 [Example 296, 1-(1-Ethyl-propyl)-2-thiophen-2-ylmethyl-1H-benzoimidazole-5-carboxylic acid {(S)-1-[4-(3,4-dihydro-1H-isoquinolin-2-yl)-piperidine-1-carbonyl]-3-methyl-butyl}-amide]	1030 nM
CCC(CC)n1c(Cc2ccsc2)nc2cc(C(=O)N[C@H](CC(=O)O)CC(C)C)ccc21 [Example 156, (S)-3-{[1-(1-Ethyl-propyl)-2-thiophen-3-ylmethyl-1H-benzoimidazole-5-carbonyl]-amino}-5-methyl-hexanoic acid]	210 nM
CCC(CC)n1c(Cc2cccs2)nc2cc(C(=O)N[C@@H](CC(C)C)C(=O)NCc3nnn[nH]3)ccc21 [Example 399, 1-(1-Ethyl-propyl)-2-thiophen-2-ylmethyl-1H-benzoimidazole-5-carboxylic acid {(S)-3-methyl-1-[(1H-tetrazol-5-ylmethyl)-carbamoyl]-butyl}-amide]	99 nM
CCCCC(CC(=O)O)NC(=O)c1ccc2c(c1)nc(Cc1cccs1)n2[C@@H]1CCCC[C@H]1C (single isomer, unassigned) [Example 460]	122 nM
CCCC[C@H](NC(=O)c1ccc2c(c1)nc(Cc1cccs1)n2C1CCCCC1C)C(=O)O (single isomer, unassigned) [Example 423]	9730 nM
CCC(CC)n1c(Cc2cccs2)nc2cc(C(=O)N[C@@H](CC(C)C)C(=O)N3CCN(c4ccccn4)CC3)ccc21 [Example 312, 1-(1-Ethyl-propyl)-2-thiophen-2-ylmethyl-1H-benzoimidazole-5-carboxylic acid [(S)-3-methyl-1-(4-pyridin-2-yl-piperazine-1-carbonyl)-butyl]-amide]	2960 nM
CCC(CC)n1c(Cc2cccs2)nc2cc(C(=O)N[C@@H](CC(C)C)C(=O)Nc3ccc(OC)cc3)ccc21 [Example 265, 1-(1-Ethyl-propyl)-2-thiophen-2-ylmethyl-1H-benzoimidazole-5-carboxylic acid [(S)-1-(4-methoxy-phenylcarbamoyl)-3-methyl-butyl]-amide]	8660 nM
CCC(C)n1c(Cc2cccs2)nc2cc(C(=O)N[C@@H](CC3CCCCC3)C(=O)O)ccc21 (stereo partly drawn) [Example 140, (S)-2-[(1-sec-Butyl-2-thiophen-2-ylmethyl-1H-benzoimidazole-5-carbonyl)-amino]-3-cyclohexyl-propionic acid]	3800 nM
CCC(CC)n1c(Cc2cccs2)nc2cc(C(=O)N[C@@H](CC(C)C)C(=O)NCCNS(C)(=O)=O)ccc21 [Example 402, 1-(1-Ethyl-propyl)-2-thiophen-2-ylmethyl-1H-benzoimidazole-5-carboxylic acid [(S)-1-(2-methanesulfonylamino-ethylcarbamoyl)-3-methyl-butyl]-amide]	777 nM
CC(C)C[C@H](NC(=O)c1ccc2c(c1)nc(Cc1ccsc1)n2-c1ccccc1)C(=O)O [Example 136, (S)-4-Methyl-2-[(1-phenyl-2-thiophen-3-ylmethyl-1H-benzoimidazole-5-carbonyl)-amino]-pentanoic acid]	2700 nM
CCC(CC)n1c(Cc2cccs2)nc2cc(C(=O)N[C@@H](CC(C)C)C(=O)N(C)CCOC)ccc21 [Example 380, 1-(1-Ethyl-propyl)-2-thiophen-2-ylmethyl-1H-benzoimidazole-5-carboxylic acid {(S)-1-[(2-methoxy-ethyl)-methyl-carbamoyl]-3-methyl-butyl}-amide]	586 nM
CCC(CC)n1c(Cc2cccs2)nc2cc(C(=O)N[C@@H](CC(C)C)C(=O)NCCOC)ccc21 [Example 268, 1-(1-Ethyl-propyl)-2-thiophen-2-ylmethyl-1H-benzoimidazole-5-carboxylic acid [(S)-1-(2-methoxy-ethylcarbamoyl)-3-methyl-butyl]-amide]	552 nM
CCC(CC)n1c(Cc2cccs2)nc2cc(C(=O)N[C@@H](CC(C)C)C(=O)N(C)Cc3n[nH]c(=O)[nH]3)ccc21 [Example 405, 1-(1-Ethyl-propyl)-2-thiophen-2-ylmethyl-1H-benzoimidazole-5-carboxylic acid {(S)-3-methyl-1-[methyl-(5-oxo-4,5-dihydro-1H-[1,2,4]triazol-3-ylmethyl)-carbamoyl]-butyl}-amide]	842 nM
